Assay results from patent US20170340588A1, “MODULATION OF REGULATORY T CELLS VIA G-COUPLED PROTEIN RECEPTOR 43” (President and Fellows of Harvard College, priority 2013, published 2017).

Tests used:
[1] = mouse, in vivo
Procedure: At the conclusion of the experiment mice were removed from isolators and processed immediately.
Cecal or small intestinal contents were collected immediately after animals were sacrificed and flash frozen in N2(1). Samples were mashed in 500 μl HPLC grade water and centrifuged at >14,000 x g, the resulting supernatant was then passed through a 0.22 μm syringe filter to remove bacterial cells and debris. Samples we then acidified with 1/10 volume of 0.01M H2SO4, heated and passed through a condenser to isolate volatile compounds within a sample. SCFA analyses were performed using an Agilent 1200 series HPLC and a Poroshell 120 SB C18 column (2.7 μm, 3.0×100mm) with guard column (Agilent Technologies). Sulfuric acid (0.01M) was used as the mobile phase. SCFA concentrations were weight corrected.

colonic Treg (cTreg) = assay: SPF SCFA intervention; flow cytometry of lymphocytes; format: in vivo, mice
Procedure: To isolate LP lymphocytes, small and large intestines were collected and opened longitudinally and washed with PBS to remove fecal contents. To remove epithelial cells, mucus and fat tissue, intestines were incubated 2 times in EDTA (5 mM)/DTT (1 mM)/Dulbecco's PBS (calcium and magnesium-free) solution (5 ml/colon) for 25 min at 37° C. Intestines were then minced and collagenase-digested two times for 45 min at 37° C. in RPMI containing 1 mg/ml collagenase type VIII (SIGMA), 25 μg/ml DNase I (Roche), 50 μg/ml Dispase (StemCell Technologies) and 0.01M HEPES (StemCell Technologies). The crude cell suspension was loaded onto a 40%/90% Percoll (GE Healthcare) gradient and centrifuged at 720 x g for 25 min at room temperature with acceleration and brake turned off. LP lymphocytes were collected from the 40%/90% interface.
Intracellular staining of the transcription factors Foxp3, Helios and T-bet was performed using the Foxp3 Fix/Perm Buffer Set (Biolegend). For detection of intracellular cytokines, cells were first stimulated for 4 h with 50 ng/ml PMA and 1 μg/ml ionomycin in the presence of Brefeldin A (All obtained from Sigma), followed by staining for surface markers. Cells were then fixed and permeabilized using the Foxp3 Fix/Perm Buffer Set (Biolegend) and stained for intracellular cytokines. The following antibodies were used: PE-labeled anti-Foxp3 (FJK-16s, eBioscience), Pacific Blue-labeled anti-Helios (22F6), PE-, FITC- or APC-labeled anti-CD4 (RM4-5), PECy7-labeled anti-CD3 (145-2C11), PE- or APC-labeled anti-IL-10 (JES5-16E3), PerCP-Cy5.5-labeled anti-IL-17 (TC11-18H10.1), APC- or PE-Cy7-labeled anti-IFNγ (XMG1.2), Pacific Blue-labeled anti-TGFβ1 (TW7-16B4), FITC-, PerCP-Cy5.5 or Pacific Blue-labeled anti-CD45 (30-F11), PerCP-Cy5.5 anti-CD45RB (C363-16A), PE- or FITC-labeled anti-CD25 (PC61), Brilliant Violet 421-labeled anti-CD127 (A7R34), GPR43 rabbit polyclonal (Abcam Catalog *Ab118449, and anti-rabbit IgG DyLight649 (Poly4064). […] Flow cytometry was performed using LSRII and data were analyzed with FlowJo software (TreeStar, Inc.). […]

SMILES: CCC(=O)O [Propionate, propionic acid]
- SCFA levels, SPF SI [1]: 2.69 ± 0.24 µmol/g
- SCFA levels, SPF SI + P [1]: 12.08 ± 3.69 µmol/g
- SCFA levels, cecal contents, ASF [1]: 18.83 ± 2.72 µmol/g
- SCFA levels, cecal contents, GF [1]: 1.46 ± 0.162 µmol/g
- SCFA levels, cecal contents, GF + Mic [1]: 11.78 ± 6.38 µmol/g
- SCFA levels, cecal contents, GF + P [1]: 14.93 ± 4.50 µmol/g
- SCFA levels, cecal contents, SPF [1]: 21.90 ± 0.122 µmol/g
- SCFA levels, cecal contents, SPF + P [1]: 43.33 ± 12.17 µmol/g
- SCFA levels, cecal contents, SPF + Vanco [1]: 1.851 ± 1.41 µmol/g
- percentage and number of cTreg (colonic Treg (cTreg); Ffar2+/+ control mice): significantly enhanced
- percentage and number of cTreg (colonic Treg (cTreg); Ffar2-/- mice): no effect
- small intestinal Treg numbers (colonic Treg (cTreg); SPF mice, distal ileum lamina propria): does not affect
